Measurements: paper PMC4331664, “Allosteric regulation of the partitioning of glucose-1-phosphate between glycogen and trehalose biosynthesis in Mycobacterium tuberculosis” (Biochimica et Biophysica Acta. General Subjects, 2015)
Read-outs that look alike come from different tables or passages of the source.

Key:
[1] = test system: Nc1ncnc2c1ncn2[C@@H]1O[C@H](COP(=O)(O)OP(=O)(O)O[C@H]2O[C@H](CO)[C@@H](O)[C@H](O)[C@H]2O)[C@@H](O)[C@H]1O; test: purified protein; settings: pH 8.0
[2] = molecular target: T1, ADP-Glc PPase (ADP-glucose pyrophosphorylase) (Mycobacterium tuberculosis, UniProt P9WN43); settings: read-out: A0.5
T1 construct: gene glgC

[3] = molecular target: T1, ADP-Glc PPase (ADP-glucose pyrophosphorylase); test: biochemical
[4] = molecular target: T1, ADP-Glc PPase (ADP-glucose pyrophosphorylase)
[5] = molecular target: T2, Tre-6P Sase (trehalose-6-phosphate synthase) (Mycobacterium tuberculosis, UniProt P9WN11); settings: read-out: A0.5
T2 construct: gene otsA
T2 sequence (P9WN11 whole entry): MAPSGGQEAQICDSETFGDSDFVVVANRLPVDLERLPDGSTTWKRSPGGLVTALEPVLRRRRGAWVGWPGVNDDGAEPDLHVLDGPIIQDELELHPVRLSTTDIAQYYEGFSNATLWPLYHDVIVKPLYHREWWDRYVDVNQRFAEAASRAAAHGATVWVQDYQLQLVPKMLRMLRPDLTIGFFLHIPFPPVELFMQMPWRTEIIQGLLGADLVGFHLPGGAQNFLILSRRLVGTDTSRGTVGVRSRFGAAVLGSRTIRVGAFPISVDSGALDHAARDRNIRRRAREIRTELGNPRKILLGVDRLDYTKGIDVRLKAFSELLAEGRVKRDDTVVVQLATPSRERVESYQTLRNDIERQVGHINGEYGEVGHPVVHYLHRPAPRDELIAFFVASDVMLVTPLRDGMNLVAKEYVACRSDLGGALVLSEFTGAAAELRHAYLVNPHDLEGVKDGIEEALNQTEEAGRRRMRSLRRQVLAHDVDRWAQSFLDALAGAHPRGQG

T1 sequence (P9WN43 whole entry): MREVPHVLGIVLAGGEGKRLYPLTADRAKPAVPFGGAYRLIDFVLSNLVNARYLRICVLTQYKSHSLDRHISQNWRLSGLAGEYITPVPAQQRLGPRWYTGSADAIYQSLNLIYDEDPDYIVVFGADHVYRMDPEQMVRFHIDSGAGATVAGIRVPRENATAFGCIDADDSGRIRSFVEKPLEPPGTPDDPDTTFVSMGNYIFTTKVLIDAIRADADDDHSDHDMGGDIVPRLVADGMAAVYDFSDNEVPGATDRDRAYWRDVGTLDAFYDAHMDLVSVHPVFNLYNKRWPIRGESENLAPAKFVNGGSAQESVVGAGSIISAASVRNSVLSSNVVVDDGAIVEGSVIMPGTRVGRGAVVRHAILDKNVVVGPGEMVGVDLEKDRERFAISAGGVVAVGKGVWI

GSase (glycogen synthase) (Mycobacterium tuberculosis H37Rv)
K0.5 [1]: 3.95 ± 0.12 mM
Vmax [1]: 0.21 µmol/min/mg

O=P(O)(O)OC[C@H]1OC(O)[C@H](O)[C@@H](O)[C@@H]1O (stereo partly drawn) [Glc-6P]
EC50 [2]: 870 µM

C=C(OP(=O)(O)O)C(=O)O [PEP]
EC50 [3]: 90 µM

O=P(O)(O)OC[C@H]1OC(O)(CO)[C@@H](O)[C@@H]1O (stereo partly drawn) [Fru-6P]
fold activation at 5 mM [4]: 1.3 fold
EC50 [5]: 330 µM
